Laboratory results as given in US12098133B2, “Hydantoin containing deoxyuridine triphosphatase inhibitors” (CV6 Therapeutics (NI) Limited, priority 2015, dated 2024).

Key:
[1] = test system: colorectal (HCT116), breast (MCF-7) and non-small cell lung (H1299, A549, H358 and H460) cell line models; assay: Colony forming assay; format: cell-based; conditions: FUdR between 0.5 and 2.5 μmol/L; all cell lines evaluated
Method: Colony forming assay showing the ability of colon (SW620, HCT116), non-small cell lung (A549, H460, H1299 and H358) and breast (MCF7) cancer cells to survive and proliferate following transient 24 hour exposure to test compounds, FUdR and combinations are determined. Specifically, cells are seeded at densities between 50 and 100 cells/well in 24-well plates. Twenty-four hours later, cells are treated with increasing concentrations of a rtest compound, a fixed dose of FUdR and combinations of these. After 24 hours, drug is removed, cells are rinsed and allowed to outgrow for 10-14 days. At the conclusion of the outgrowth, cells are fixed in 60% ice cold methanol and stained with 0.1% crystal violet, scanned and counted. Data is presented as percentage of untreated controls (mean±SD). Fraction affected and combination indexes are calculated according to the method of Chou and Talalay where <1 is indicative of a synergistic drug interaction.
Colony forming assays are performed to evaluate the effectiveness of test compounds alone and in combination with the fluoropyrimidine thymidylate synthase (TS) inhibitor fluorodeoxyuridine (FUdR) at reducing cancer cell viability in colorectal (HCT116), breast (MCF-7) and non-small cell lung (H1299, A549, H358 and H460) cell line models. […]

[2] = test system: colorectal (HCT116 and SW620) cell line models; assay: MTS growth inhibition assay; format: cell-based; conditions: 5-FU between 0 and 100 μmol/L; both colorectal cancer cell lines (HCT116 and SW620)
Method: The Cell Titer AQueous MTS assay (Promega) is carried out according to the manufacturers guidelines. […] Fraction affected (FA) is calculated from the percent growth inhibition: FA=(100−% growth inhibition)/100.
Test compounds are evaluated for their antitumor activity in colorectal cancer cells using the MTS growth inhibition assay. HCT116 and SW620 cells are exposed to increasing concentrations of each agent for 72 hours and growth inhibition is directly compared to vehicle-treated controls. The NSCLC cell lines A549 and H1299 are exposed to increasing concentrations of each agent for 72 hours and growth inhibition is directly compared to vehicle-treated controls.
Simultaneous treatment with increasing concentrations of 5-FU and a test compound at fixed concentrations of 25 μmol/L is determined.

O=c1[nH]c(=O)n([C@H]2C[C@H](O)[C@@H](CO)O2)cc1F [FUdR, fluorodeoxyuridine]
colonies formed [1]: dose-dependent decreases in colonies formed

O=c1[nH]cc(F)c(=O)[nH]1 [5-FU, 5-fluorouracil]
growth inhibition [2]: dose-dependent increases in growth inhibition
